Laboratory results: patent US8927750B2, “Acyloxy- and phosphoryloxy-butadiene-Fe(CO)3 complexes as enzyme-triggered co-releasing molecules” (priority 2011, dated 2015)
Where two headings read alike, the source gives them in different places.

Assays:
Assay type in all cases: biochemical
[1] = test system: horse skeletal myoglobin (Mb); assay: Carbon monoxide release (Mb-assay) without esterase/lipase; details: for carbon monoxide release without esterase/lipase: Mb solution, closed cell, 37° C.; for carbon monoxide release without esterase/lipase after exposure to air: cell opened to air for 2 s
Protocol: (§1) For this purpose, a solution of 30 mg Mb in 15 mL buffer was degassed by bubbling with argon for 10 min, then reduced by addition of an excess of Na2S2O4 and degassed again for 10 min. The concentration was determined by measuring a 1:10 diluted solution and using the following equation: A=ελ·c·l with ε408 nm=188000 L mol^−1 cm^−1
(§2) A stock solution of a complex in DMSO and a solution of the esterase in phosphate buffer were added under argon before the cell was closed to prevent re-oxidation of the Fe(II) in the Mb solution to Fe(III). […] Equivalents of the esterase are given relative to the inventive complex.
The Mb solution (c=93 μM) was reduced by the addition of 22 mg (126.4 μmol, 91 eq) of Na2S2O4 in 0.1 mL buffer. 0.7 mg (2.8 μmol) of 2-methoxycyclohexa-1,3-dienetricarbonyliron (0) were dissolved in 70 μL of DMSO to provide a 0.039 M solution. For the measurement, 6 μL (2.39·10^−7 mol, 1.3 eq) of this solution were added to 2.3 mL of the Mb solution (2.14·10^−7 mol, 1 eq).

[2] = test system: lipase from Candida rugosa; parameters: key to cleaved by lipase from Candida rugosa: “+” indicates kinetic racemic resolution; “−” means that no reaction took place
pig liver esterase (PLE) [3] = test system: pig liver esterase (PLE); parameters: key to cleaved by PLE: “+” indicates kinetic racemic resolution; “−” means that no reaction took place
pig liver esterase (PLE) [4] = assay: Carbon monoxide release (Mb-assay) with pig liver esterase; details: Mb solution, closed cell, 37° C.
Protocol: as §1, §2
The Mb solution (c=76 μM) was reduced by the addition of 23 mg (132.1 μmol, 116 eq) of Na2S2O4 in 0.1 mL buffer. 1.7 mg (6.2 μmol) of rac-96 were dissolved in 160 μL of DMSO to provide a 0.038 M solution. For the measurement, 6 μL (2.29·10^−7 mol, 1.3 eq) of this solution were added to 2.3 mL of the Mb solution (1.75·10^−7 mol, 1 eq) and 70 μL (approximately 0.01 eq) of a solution of 0.7 mg pig liver esterase (PLE) in 240 μL buffer.
The Mb solution (c=56 μM) was reduced by the addition of 22 mg (126.4 μmol, 151 eq) of Na2S2O4 in 0.1 mL buffer. 1.1 mg (3.0 μmol) of rac-13 were dissolved in 100 μL of DMSO to provide a 0.030 M solution. For the measurement, 3 μL (9.06·10^−8 mol, 0.7 eq) of this solution were added to 2.3 mL of the Mb solution (1.28·10^−7 mol, 1 eq) and 70 μL (approximately 0.01 eq) of a solution of 0.6 mg PLE in 240 μL buffer.

[5] = test system: lipase from Candida rugosa; assay: Carbon monoxide release (Mb-assay) with lipase from Candida rugosa; details: for carbon monoxide release with lipase from Candida rugosa: Mb solution, closed cell, 37° C.
Protocol: as §1, §2
The Mb solution (c=88 μM) was reduced by the addition of 22 mg (126.4 μmol, 95 eq) of Na2S2O4 in 0.1 mL buffer. 3.4 mg (12 μmol) of rac-86 were dissolved in 300 μL of DMSO to provide a 0.041 M solution. For the measurement, 6 μL (2.45·10^−7 mol, 1.2 eq) of this solution were added to 2.3 mL of the Mb solution (2.03·10^−7 mol, 1 eq) and 70 μL (approximately 0.09 eq) of a solution of 5 mg lipase from Candida rugosa in 240 μL buffer.
The Mb solution (c=95 μM) was reduced by the addition of 23 mg (132.1 μmol, 92 eq) of Na2S2O4 in 0.1 mL buffer. 1.8 mg (5.6 μmol) of rac-87 were dissolved in 180 μL of DMSO to provide a 0.031 M solution. For the measurement, 12 μL (3.74·10^−7 mol, […]) of this solution were added to 2.3 mL of the Mb solution (2.19·10^−7 mol, 1 eq) and 140 μL (approximately 0.17 eq) of a solution of 15 mg lipase from Candida rugosa in 500 μL buffer.

[6] = test system: lipase from Candida rugosa; details: open tube, 10 mg complex, 20 mg lipase
[7] = time 0 min, 12 mg complex, 15 mg enzyme
[8] = time 110 min, 12 mg complex, 15 mg enzyme

For `COC1=CCCC=C1.O=[C]=[Fe](=[C]=O)=[C]=O` [2-methoxycyclohexa-1,3-dienetricarbonyliron (0), reference compound], the “carbon monoxide release without esterase/lipase” value [1] was “no carbon monoxide release”, the “carbon monoxide release without esterase/lipase after exposure to air” value [1] was “no carbon monoxide was released” and the “cleaved by lipase from Candida rugosa” value ([2]; General Procedure I) was “−”. The “reaction with lipase from Candida rugosa” value ([2]; General Procedure I) was “did not react”, the “cleaved by PLE” value (pig liver esterase (PLE) [3]; General Procedure I) was “−” and the “reaction with PLE” value (pig liver esterase (PLE) [3]; General Procedure I) was “did not react”.
In the case of `CC(=O)OC1=CC(C)(C)CC(OC(C)=O)=C1.[C-]#[O+].[C-]#[O+].[C-]#[O+].[Fe]` [rac-13, reference compound], the “carbon monoxide release without esterase/lipase” value [1] is reported as “no significant amount of carbon monoxide was released”, the “carbon monoxide release with pig liver esterase” value (pig liver esterase (PLE) [4]) is reported as “carbon monoxide release” and the “cleaved by lipase from Candida rugosa” value ([2]; General Procedure I) is reported as “−”. For the same compound, the “cleaved by PLE” value (pig liver esterase (PLE) [3]; General Procedure I) was “+”, the “conversion (%)” value (pig liver esterase (PLE) [3]; time 15 min, 13 mg complex, 0.8 mg enzyme) was 3% and the “conversion (%)” value (pig liver esterase (PLE) [3]; time 30 min, 13 mg complex, 0.8 mg enzyme) was 12%. For the same compound, the “conversion (%)” value (pig liver esterase (PLE) [3]; time 45 min, 13 mg complex, 0.8 mg enzyme) was 54%, the “conversion (%)” value (pig liver esterase (PLE) [3]; time 150 min, 13 mg complex, 0.8 mg enzyme) was 64% and the “conversion (%)” value (pig liver esterase (PLE) [3]; time 210 min, 13 mg complex, 0.8 mg enzyme) was 80%.
With `CC(=O)OC1=CCCC=C1.[C-]#[O+].[C-]#[O+].[C-]#[O+].[Fe]` [rac-86, (RS)-[η^4-Cyclohexa-1,5-dien-1-yl-tricarbonyliron(0)]acetate] the “carbon monoxide release without esterase/lipase” value [1] was “no carbon monoxide was released”, the “carbon monoxide release with pig liver esterase” value (pig liver esterase (PLE) [4]) was “carbon monoxide release” and the “cleaved by lipase from Candida rugosa” value ([2]; General Procedure I) was “+”. For the same compound, the “conversion (%)” value ([2]; time 0 min, 8 mg enzyme) was 0/0%, the “conversion (%)” value ([2]; time 15 min, 8 mg enzyme) was 32% and the “conversion (%)” value ([2]; time 30 min, 8 mg enzyme) was 68%. For the same compound, the “conversion (%)” value ([2]; time 60 min, 8 mg enzyme) was 82%, the “conversion (%)” value ([2]; time 110 min, 8 mg enzyme) was 93% and the “conversion (%)” value ([2]; time 240 min, 8 mg enzyme) was 98%. For the same compound, the “carbon monoxide release with lipase from Candida rugosa” value [5] was “carbon monoxide release”, the “cleaved by PLE” value (pig liver esterase (PLE) [3]; General Procedure I) was “−” and the “conversion (%)” value ([6]; time 0 min) was 0/0%. The “conversion (%)” value ([6]; time 15 min) was 60%, the “conversion (%)” value ([6]; time 30 min) was 79% and the “conversion (%)” value ([6]; time 60 min) was 85%. The “conversion (%)” value ([6]; time 110 min) was 97%.
In the case of `CC(C)(C)C(=O)OC1=CCCC=C1.[C-]#[O+].[C-]#[O+].[C-]#[O+].[Fe]` [rac-87, (RS)-[η^4-Cyclohexa-1,5-dien-1-yl-tricarbonyliron(0)] pivalate], the “carbon monoxide release without esterase/lipase after exposure to air” value [1] is reported as “no carbon monoxide was released”, the “cleaved by lipase from Candida rugosa” value ([2]; General Procedure I) is reported as “+” and the “conversion (%)” value ([2]; time 0 min, 8 mg enzyme) is reported as 0/0%. The “conversion (%)” value [2, 7] was 0/0%, the “conversion (%)” value ([2]; time 30 min, 8 mg enzyme) was 4% and the “conversion (%)” value ([2]; time 60 min, 8 mg enzyme) was 6%. The “conversion (%)” value ([2]; time 110 min, 8 mg enzyme) was 8%, the “conversion (%)” value [2, 8] was 47% and the “conversion (%)” value ([2]; time 240 min, 8 mg enzyme) was 12%. For the same compound, the “conversion (%)” value ([2]; time 240 min, 12 mg complex, 15 mg enzyme) was 60%, the “conversion (%)” value ([2]; time 24 h, 8 mg enzyme) was 47% and the “conversion (%)” value ([2]; time 24 h, 12 mg complex, 15 mg enzyme) was 73%. The “carbon monoxide release with lipase from Candida rugosa” value [5] was “no carbon monoxide release”, the “carbon monoxide release with lipase from Candida rugosa after exposure to air” value ([5]; cell opened to air for 2 s after 360 min, conversion of Mb-O2 to MbCO) was “carbon monoxide release” and the “cleaved by PLE” value (pig liver esterase (PLE) [3]; General Procedure I) was “−”.
In the case of `CC(=O)OC1=CC=CCC1.[C-]#[O+].[C-]#[O+].[C-]#[O+].[Fe]` [rac-96, (RS)-[θ^4-Cyclohexa-1,3-dien-1-yl-tricarbonyliron(0)]acetate], the “carbon monoxide release without esterase/lipase” value [1] is reported as “no carbon monoxide release”, the “carbon monoxide release with pig liver esterase” value (pig liver esterase (PLE) [4]) is reported as “carbon monoxide release” and the “cleaved by lipase from Candida rugosa” value ([2]; General Procedure I) is reported as “+”. The “conversion (%)” value [2, 7] was 0/0%, the “conversion (%)” value ([2]; time 15 min, 12 mg complex, 15 mg enzyme) was 43% and the “conversion (%)” value ([2]; time 30 min, 12 mg complex, 15 mg enzyme) was 57%. For the same compound, the “conversion (%)” value ([2]; time 60 min, 12 mg complex, 15 mg enzyme) was 76%, the “conversion (%)” value [2, 8] was 83% and the “cleaved by PLE” value (pig liver esterase (PLE) [3]; General Procedure I) was “+”. For the same compound, the “conversion (%)” value (pig liver esterase (PLE) [3]; time 0 min, 10 mg complex, 1 mg enzyme) was 0%, the “conversion (%)” value (pig liver esterase (PLE) [3]; time 120 min, 10 mg complex, 1 mg enzyme) was 28% and the “conversion (%)” value (pig liver esterase (PLE) [3]; time 180 min, 10 mg complex, 1 mg enzyme) was 45%. The “conversion (%)” value (pig liver esterase (PLE) [3]; time 300 min, 10 mg complex, 1 mg enzyme) was 52%, the “conversion (%)” value (pig liver esterase (PLE) [3]; time 420 min, 10 mg complex, 1 mg enzyme) was 77% and the “conversion (%)” value (pig liver esterase (PLE) [3]; time 540 min, 10 mg complex, 1 mg enzyme) was 84%. For the same compound, the “conversion (%)” value (pig liver esterase (PLE) [3]; time 660 min, 10 mg complex, 1 mg enzyme) was 89%, the “conversion (%)” value ([6]; time 0 min) was 0/0% and the “conversion (%)” value ([6]; time 15 min) was 65%. The “conversion (%)” value ([6]; time 30 min) was 77%, the “conversion (%)” value ([6]; time 60 min) was 79% and the “conversion (%)” value ([6]; time 110 min) was 81%.
